Patent US20260053932A1, “COMPOUNDS AND METHODS FOR THE TARGETED DEGRADATION OF ANDROGEN RECEPTOR AND ASSOCIATED METHODS OF USE” (Arvinas Operations, Inc., priority 2020, published 2026)

Test system: androgen receptor (AR) in LNCaP and/or VCaP cells
Test: Androgen Receptor ELISA assay (AR degradation)
Format: cell-based
Details: degradation of AR ELISA in LNCaP and/or VCaP cells; Table 2C; read-out: DC50 Code*
In short: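 VCaP cells grown ≥3 days, then treated 5 h with compound in media containing 1 nM R1881 (10× stock). Cells lysed and AR quantified by sandwich ELISA (mouse AR detection Ab, HRP anti-mouse, TMB). DC50 and Dmax derived from AR degradation.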

Cc1cc(O[C@H]2C(C)(C)[C@H](NC(=O)c3ccc(N4CCO[C@@H](CN5CCN(c6ccc7c(c6)C(=O)N(C6CCC(=O)NC6=O)C7=O)CC5)C4)cc3)C2(C)C)cc(C)c1C#N (stereo partly drawn) [compound 171, N-((1r,3S)-3-(4-cyano-3,5-dimethylphenoxy)-2,2,4,4-tetramethylcyclobutyl)-4-((2S)-2-((4-(2-(2,6-dioxopiperidin-3-yl)-1,3-dioxoisoindolin-5-yl)piperazin-1-yl)methyl)morpholino) benzamide]
DC50: < 1 nM

Cc1cc(O[C@H]2C(C)(C)[C@H](NC(=O)c3ccc(N4CCC(CN5CCC[C@H]5COc5ccc6c(c5)C(=O)N(C5CCC(=O)NC5=O)C6=O)CC4)cc3)C2(C)C)cc(C)c1C#N (stereo partly drawn) [compound 172, N-((1r,3S)-3-(4-cyano-3,5-dimethylphenoxy)-2,2,4,4-tetramethylcyclobutyl)-4-(4-(((2S)-2-(((2-(2,6-dioxopiperidin-3-yl)-1,3-dioxoisoindolin-5-yl)oxy)methyl)pyrrolidin-1-yl)methyl)piperidin-1-yl)benzamide]
DC50: < 1 nM

Cc1cc(O[C@H]2C(C)(C)[C@H](NC(=O)c3ccc(N4CCC(CN5CCOC[C@@H]5CCOc5ccc6c(c5)C(=O)N(C5CCC(=O)NC5=O)C6=O)CC4)cc3)C2(C)C)cc(C)c1C#N (stereo partly drawn) [compound 174, N-((1r,3S)-3-(4-cyano-3,5-dimethylphenoxy)-2,2,4,4-tetramethylcyclobutyl)-4-(4-(((3S)-3-(2-((2-(2,6-dioxopiperidin-3-yl)-1,3-dioxoisoindolin-5-yl)oxy)ethyl)morpholino)methyl)piperidin-1-yl)benzamide]
DC50: < 1 nM

Cc1cc(O[C@H]2C(C)(C)[C@H](NC(=O)c3cnc(N4CC5(CC(CN(C(C)C)[C@H]6C[C@H](Oc7ccc8c(c7)C(=O)N(C7CCC(=O)NC7=O)C8=O)C6)C5)C4)cn3)C2(C)C)cc(C)c1C#N (some centres unmarked) [compound 175, N-((1r,3r)-3-(4-cyano-3,5-dimethylphenoxy)-2,2,4,4-tetramethylcyclobutyl)-5-(6-((((1r,3r)-3-((2-(2,6-dioxopiperidin-3-yl)-1,3-dioxoisoindolin-5-yl)oxy)cyclobutyl) (isopropyl)amino)methyl)-2-azaspiro[3.3]heptan-2-yl)pyrazine-2-carboxamide]
DC50: < 1 nM

COc1cc(O[C@H]2C[C@H](N(CC3CCN(c4ncc(C(=O)N[C@H]5C(C)(C)[C@H](Oc6cc(C)c(C#N)c(C)c6)C5(C)C)cn4)CC3)CC(F)(F)F)C2)cc2c1C(=O)N(C1CCC(=O)NC1=O)C2=O (some centres unmarked) [compound 179, N-((1r,3r)-3-(4-cyano-3,5-dimethylphenoxy)-2,2,4,4-tetramethylcyclobutyl)-2-(4-((((1r,3r)-3-((2-(2,6-dioxopiperidin-3-yl)-7-methoxy-1,3-dioxoisoindolin-5-yl)oxy)cyclobutyl)(2,2,2-trifluoroethyl)amino)methyl)piperidin-1-yl)pyrimidine-5-carboxamide]
DC50: < 1 nM

COc1cc(O[C@H]2C[C@H](N(CCN3CCOCC3)CC3CCN(c4ccc(C(=O)N[C@H]5C(C)(C)[C@H](Oc6cc(C)c(C#N)c(C)c6)C5(C)C)cc4)CC3)C2)cc2c1C(=O)N(C1CCC(=O)NC1=O)C2=O (some centres unmarked) [compound 180, N-((1r,3r)-3-(4-cyano-3,5-dimethylphenoxy)-2,2,4,4-tetramethylcyclobutyl)-4-(4-((((1r,3r)-3-((2-(2,6-dioxopiperidin-3-yl)-7-methoxy-1,3-dioxoisoindolin-5-yl)oxy)cyclobutyl)(2-morpholinoethyl)amino)methyl)piperidin-1-yl)benzamide]
DC50: < 1 nM

Cc1cc(O[C@H]2C(C)(C)[C@H](NC(=O)c3ccc(CN4CCOC[C@H]4CN4CCN(c5ccc6c(c5)C(=O)N(C5CCC(=O)NC5=O)C6=O)CC4)cc3)C2(C)C)cc(C)c1C#N (stereo partly drawn) [compound 183, N-((1r,3R)-3-(4-cyano-3,5-dimethylphenoxy)-2,2,4,4-tetramethylcyclobutyl)-4-(((3R)-3-((4-(2-(2,6-dioxopiperidin-3-yl)-1,3-dioxoisoindolin-5-yl)piperazin-1-yl)methyl)morpholino)methyl)benzamide]
DC50: < 1 nM

COCCN(CC1CCN(c2ccc(C(=O)N[C@H]3C(C)(C)[C@H](Oc4ccc(C#N)c(Cl)c4)C3(C)C)cc2)CC1)[C@H]1C[C@H](Oc2ccc3c(c2)C(=O)N(C2CCC(=O)NC2=O)C3=O)C1 (some centres unmarked) [compound 184, N-((1r,3r)-3-(3-chloro-4-cyanophenoxy)-2,2,4,4-tetramethylcyclobutyl)-4-(4-((((1r,3r)-3-((2-(2,6-dioxopiperidin-3-yl)-1,3-dioxoisoindolin-5-yl)oxy)cyclobutyl)(2-methoxyethyl)amino)methyl)piperidin-1-yl)benzamide]
DC50: < 1 nM

Cc1cc(O[C@H]2C(C)(C)[C@H](NC(=O)c3ccc(N4CC(CN(C(C)C)[C@H]5C[C@H](Oc6ccc7c(c6)C(=O)N(C6CCC(=O)NC6=O)C7=O)C5)C4)cc3)C2(C)C)cc(C)c1C#N (some centres unmarked) [compound 187, N-((1r,3r)-3-(4-cyano-3,5-dimethylphenoxy)-2,2,4,4-tetramethylcyclobutyl)-4-(3-((((1r,3r)-3-((2-(2,6-dioxopiperidin-3-yl)-1,3-dioxoisoindolin-5-yl)oxy)cyclobutyl) (isopropyl)amino)methyl)azetidin-1-yl)benzamide]
DC50: < 1 nM

Cc1cc(O[C@H]2C(C)(C)[C@H](NC(=O)c3ccc(N4CCC(CN5CCCC[C@@H]5COc5ccc6c(c5)C(=O)N(C5CCC(=O)NC5=O)C6=O)CC4)cc3)C2(C)C)cc(C)c1C#N (stereo partly drawn) [compound 192, N-((1r,3R)-3-(4-cyano-3,5-dimethylphenoxy)-2,2,4,4-tetramethylcyclobutyl)-4-(4-(((2R)-2-(((2-(2,6-dioxopiperidin-3-yl)-1,3-dioxoisoindolin-5-yl)oxy)methyl)piperidin-1-yl)methyl)piperidin-1-yl)benzamide]
DC50: < 1 nM

Cc1cc(O[C@H]2C(C)(C)[C@H](NC(=O)c3ccc(N4CCC(CN5CCC[C@@H]5COc5ccc6c(c5)C(=O)N(C5CCC(=O)NC5=O)C6=O)CC4)cc3)C2(C)C)cc(C)c1C#N (stereo partly drawn) [compound 193, N-((1r,3R)-3-(4-cyano-3,5-dimethylphenoxy)-2,2,4,4-tetramethylcyclobutyl)-4-(4-(((2R)-2-(((2-(2,6-dioxopiperidin-3-yl)-1,3-dioxoisoindolin-5-yl)oxy)methyl)pyrrolidin-1-yl)methyl)piperidin-1-yl)benzamide]
DC50: < 1 nM

CCN(CC1CCN(c2cnc(C(=O)N[C@H]3C(C)(C)[C@H](Oc4ccc(C#N)c(OC)c4)C3(C)C)cn2)CC1)[C@H]1C[C@H](Oc2ccc3c(c2)C(=O)N(C2CCC(=O)NC2=O)C3=O)C1 (some centres unmarked) [compound 194, N-((1r,3r)-3-(4-cyano-3-methoxyphenoxy)-2,2,4,4-tetramethylcyclobutyl)-5-(4-((((1r,3r)-3-((2-(2,6-dioxopiperidin-3-yl)-1,3-dioxoisoindolin-5-yl)oxy)cyclobutyl)(ethyl)amino)methyl)piperidin-1-yl)pyrazine-2-carboxamide]
DC50: < 1 nM

Cc1cc(O[C@H]2C(C)(C)[C@H](NC(=O)c3ccc(CN4CCOC[C@@H]4CN4CCN(c5ccc6c(c5)C(=O)N(C5CCC(=O)NC5=O)C6=O)CC4)cc3)C2(C)C)cc(C)c1C#N (stereo partly drawn) [compound 196, N-((1r,3S)-3-(4-cyano-3,5-dimethylphenoxy)-2,2,4,4-tetramethylcyclobutyl)-4-(((3S)-3-((4-(2-(2,6-dioxopiperidin-3-yl)-1,3-dioxoisoindolin-5-yl)piperazin-1-yl)methyl)morpholino)methyl)benzamide]
DC50: < 1 nM

Cc1cc(O[C@H]2C(C)(C)[C@H](NC(=O)c3ccc(N4CCC(CN5CCOC[C@H]5CCOc5ccc6c(c5)C(=O)N(C5CCC(=O)NC5=O)C6=O)CC4)cc3)C2(C)C)cc(C)c1C#N (stereo partly drawn) [compound 201, N-((1r,3R)-3-(4-cyano-3,5-dimethylphenoxy)-2,2,4,4-tetramethylcyclobutyl)-4-(4-(((3R)-3-(2-((2-(2,6-dioxopiperidin-3-yl)-1,3-dioxoisoindolin-5-yl)oxy)ethyl)morpholino)methyl)piperidin-1-yl)benzamide]
DC50: < 1 nM

COc1cc(O[C@H]2C(C)(C)[C@H](NC(=O)c3ccc(N4CCC(CN(CCN5CCOCC5)[C@H]5C[C@H](Oc6ccc7c(c6)C(=O)N(C6CCC(=O)NC6=O)C7=O)C5)CC4)cc3)C2(C)C)ccc1C#N (some centres unmarked) [compound 204, N-((1r,3r)-3-(4-cyano-3-methoxyphenoxy)-2,2,4,4-tetramethylcyclobutyl)-4-(4-((((1r,3r)-3-((2-(2,6-dioxopiperidin-3-yl)-1,3-dioxoisoindolin-5-yl)oxy)cyclobutyl)(2-morpholinoethyl)amino)methyl)piperidin-1-yl)benzamide]
DC50: < 1 nM

Cc1cc(O[C@H]2C(C)(C)[C@H](NC(=O)c3ccc(N4CCC(CN(C(C)C)[C@H]5C[C@H](Oc6ccc7c(c6)C(=O)N([C@H]6CCC(=O)NC6=O)C7=O)C5)CC4)cc3)C2(C)C)cc(C)c1C#N [compound 205, N-((1r,3r)-3-(4-cyano-3,5-dimethylphenoxy)-2,2,4,4-tetramethylcyclobutyl)-4-(4-((((1S,3r)-3-((2-((S)-2,6-dioxopiperidin-3-yl)-1,3-dioxoisoindolin-5-yl)oxy)cyclobutyl) (isopropyl)amino)methyl)piperidin-1-yl)benzamide]
DC50: < 1 nM

CCN(CC1CCN(c2cnc(C(=O)N[C@H]3C(C)(C)[C@H](Oc4cc(C)c(C#N)c(C)c4)C3(C)C)cn2)CC1)[C@H]1C[C@H](Oc2ccc3c(c2)C(=O)N(C2CCC(=O)NC2=O)C3=O)C1 (some centres unmarked) [compound 206, N-((1r,3r)-3-(4-cyano-3,5-dimethylphenoxy)-2,2,4,4-tetramethylcyclobutyl)-5-(4-((((1r,3r)-3-((2-(2,6-dioxopiperidin-3-yl)-1,3-dioxoisoindolin-5-yl)oxy)cyclobutyl) (ethyl)amino)methyl)piperidin-1-yl)pyrazine-2-carboxamide]
DC50: < 1 nM
